From ChEMBL document CHEMBL1144129, “Isolation of xestosterol esters of brominated acetylenic fatty acids from the marine sponge xestospongia testudinaria” (J Nat Prod, 1999)
pIC50: −log10 of the molar value.

Molecular target: T1, Adenosine receptor A1 (Rattus norvegicus, UniProt P25099)
T1 sequence (P25099 whole entry): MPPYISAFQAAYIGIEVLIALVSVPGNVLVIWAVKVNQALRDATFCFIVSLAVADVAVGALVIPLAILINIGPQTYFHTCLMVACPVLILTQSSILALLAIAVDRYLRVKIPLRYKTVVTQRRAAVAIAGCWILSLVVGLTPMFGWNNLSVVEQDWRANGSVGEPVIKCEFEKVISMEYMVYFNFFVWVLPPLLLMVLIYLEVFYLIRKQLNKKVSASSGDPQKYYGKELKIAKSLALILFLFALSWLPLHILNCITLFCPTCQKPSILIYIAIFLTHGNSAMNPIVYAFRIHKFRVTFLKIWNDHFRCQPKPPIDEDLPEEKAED
Assay: Displacement of [3H]DPCPX from rat brain adenosine A1 receptor

For O=C(O)CCCCCC#C/C=C/CCCCC#C/C=C/Br, the pIC50 was 3.97.
